The source of these data is ChEMBL document CHEMBL1201862, “PubChem BioAssay data set” (2004).

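Step 1: Grow cells in 96-well plates. Step 2: Expose to compound for 48 hours at 5 concentrations. Step 3: Interpolate endpoints linearly; if unreached, use highest concentration. Abbreviation: GI50, concentration required for 50% inhibition of growth.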 Activity calls are given as the source filed them. No stated cut-off is given here; in the data, active = GI50 up to about 1.1 µM and inactive = higher.

Some test systems named below: SNB-75; UACC-62; HCT-15; K562; NCI-H226; RPMI-8226; SK-MEL-5; SK-MEL-28; M19-MEL; HT-29; HOP-92; SF-539; NCI-H460; HOP-62; SK-MEL-2; TK-10; SNB-19; Malme-3M; MCF7; DU-145.
Common to all, as to assay: NCI anticancer screen, dose series, 48 h

Regarding `O=c1c2ccccc2nc(-c2ccccc2)n1NC1OC(CO)C(O)C(O)C1O` (stereo not drawn), the GI50 was 85.3 µM (inactive) with SNB-75; > 100 µM (inactive) with UACC-62; over 100 µM in the test with HCT-15; > 100 µM (inactive) in the test on K562; > 100 µM (inactive) in the test on NCI-H226; > 100 µM (inactive) in the test with RPMI-8226. Also, the GI50 in the test with SK-MEL-5, in the test with SK-MEL-28, with M19-MEL, with HT-29, in the test with HOP-92 and with SF-539 was > 100 µM (inactive) in each case. Moreover, the GI50 in the test on NCI-H460, in the test on HOP-62, with SK-MEL-2, in the test on TK-10, in the test with SNB-19 and in the test on Malme-3M was > 100 µM (inactive) in each case.

Regarding `COc1cccc(N2C(=O)[C@H]3CC(C)c4c([nH]c5ccccc45)[C@H]3C2=O)c1` (stereo partly drawn), the GI50 was 19.6 µM (inactive) in the test with SNB-75; 39.4 µM (inactive) in the test with UACC-62; over 100 µM with HCT-15; 46 µM (inactive) in the test on K562; 93.5 µM (inactive) in the test on NCI-H226; 38.9 µM (inactive) with RPMI-8226. Moreover, the GI50 was 63.8 µM (inactive) with SK-MEL-5; 62.4 µM (inactive) with SK-MEL-28; 86.1 µM (inactive) in the test with M19-MEL; 36.1 µM (inactive) in the test on HT-29; 20.7 µM (inactive) in the test on HOP-92; 29.1 µM (inactive) with SF-539. Moreover, the GI50 in the test on NCI-H460 is > 100 µM (inactive); in the test with HOP-62 it was 16.8 µM (inactive); in the test on SK-MEL-2 it was 27.5 µM (inactive); in the test on TK-10, 55.7 µM (inactive); with SNB-19, 28.4 µM (inactive); in the test with Malme-3M, 92.3 µM (inactive).

Regarding `COC(=O)C1Cc2c([nH]c3ccccc23)C(c2ccccc2O)N1Cc1ccccc1` (stereo not drawn), the GI50 with SNB-75 was 7.05 µM (inactive); in the test with UACC-62 it was 25.4 µM (inactive); with HCT-15, over 46.5 µM; in the test on K562, 37.5 µM (inactive); with NCI-H226, 35.7 µM (inactive); in the test on RPMI-8226, > 100 µM (inactive). Further, the GI50 is 27.2 µM (inactive) with SK-MEL-5; > 31.6 µM (inactive) in the test on SK-MEL-28; 40.6 µM (inactive) in the test with M19-MEL; 28.2 µM (inactive) with HT-29; 22.6 µM (inactive) with HOP-92; 27.8 µM (inactive) in the test with SF-539. Further, the GI50 in the test with NCI-H460 was 30.8 µM (inactive); with HOP-62, 41.2 µM (inactive); in the test with SK-MEL-2, 21.8 µM (inactive); in the test on TK-10, 34.3 µM (inactive); in the test with SNB-19, > 31.6 µM (inactive); in the test on Malme-3M it was > 31.6 µM (inactive).

Regarding `CCC[C@H]1O[C@@H]2CC(=O)O[C@@H]2C2=C1C(=O)C=CC2=O`, the GI50 in the test with SNB-75 is 17 µM (inactive); in the test with UACC-62, 17.9 µM (inactive); with HCT-15 it was 15.3 µM; in the test with K562 it was 5.09 µM (inactive); in the test with NCI-H226, 13.7 µM (inactive); in the test on RPMI-8226 it was 25.6 µM (inactive). Also, the GI50 in the test with SK-MEL-5 was 20.1 µM (inactive); in the test with SK-MEL-28, 17.2 µM (inactive); in the test with M19-MEL, 20.3 µM (inactive); in the test on HT-29, 22 µM (inactive); in the test on HOP-92, 2.7 µM (inactive); in the test on SF-539, 19.4 µM (inactive). The GI50 with NCI-H460 is > 100 µM (inactive); in the test with HOP-62 it was > 54.1 µM (inactive); with SK-MEL-2, 20.3 µM (inactive); in the test with TK-10, > 42.8 µM (inactive); in the test with SNB-19, > 60.4 µM (inactive); in the test with Malme-3M, 18.2 µM (inactive).

As for `COc1ccccc1NC(=O)C1=C(C)NC(C)=C(C(=O)Nc2ccccc2OC)C1/C=C/c1ccccc1`, the GI50 in the test with SNB-75 is 25.8 µM (inactive); in the test on UACC-62 it was 97.9 µM (inactive); with HCT-15, over 100 µM; in the test with K562, 50.2 µM (inactive); with NCI-H226, > 100 µM (inactive); in the test on RPMI-8226, 55.3 µM (inactive). Also, the GI50 in the test with SK-MEL-5, in the test on SK-MEL-28, with M19-MEL, in the test on HT-29, in the test with HOP-92 and in the test with SF-539 was > 100 µM (inactive) each time. Also, the GI50 with NCI-H460, in the test with HOP-62, in the test on SK-MEL-2, in the test with TK-10, with SNB-19 and with Malme-3M was > 100 µM (inactive) each time.

`COCCN1C2=CCCCC2=Nc2c(N)nc(N)nc21`: the GI50 is > 100 µM (inactive) in the test with SNB-75; > 100 µM (inactive) in the test with UACC-62; over 100 µM with HCT-15; > 100 µM (inactive) in the test on K562; > 100 µM (inactive) with NCI-H226; > 100 µM (inactive) in the test on RPMI-8226. Also, the GI50 in the test with SK-MEL-5 is > 100 µM (inactive); in the test on SK-MEL-28, > 100 µM (inactive); with M19-MEL, 24.3 µM (inactive); in the test with HT-29, > 100 µM (inactive); in the test with HOP-92, > 100 µM (inactive); in the test with SF-539, > 100 µM (inactive). Moreover, the GI50 with NCI-H460, with HOP-62, in the test with SK-MEL-2, with TK-10, in the test on SNB-19 and with Malme-3M was > 100 µM (inactive) throughout.

As for `CCCCC1CC(c2ccc(Cl)cc2)=NO1` (stereo not drawn), the GI50 with SNB-75 was > 100 µM (inactive); in the test with UACC-62, > 100 µM (inactive); in the test on HCT-15, over 100 µM; in the test with K562, > 100 µM (inactive); in the test with NCI-H226 it was > 100 µM (inactive); in the test with RPMI-8226, > 100 µM (inactive). The GI50 in the test on SK-MEL-5, with SK-MEL-28, with M19-MEL, with HT-29, in the test with HOP-92 and with SF-539 was > 100 µM (inactive) each time. Also, the GI50 in the test on NCI-H460, with HOP-62, in the test with SK-MEL-2, in the test with TK-10, in the test with SNB-19 and in the test with Malme-3M was > 100 µM (inactive) each time.

As for `c1cc2[se][se]c3c4cccc5[se][se]c(c(c1)c23)c54`, the GI50 with SNB-75, in the test with UACC-62, in the test with K562, in the test on NCI-H226, in the test on RPMI-8226 and in the test with SK-MEL-5 was > 100 µM (inactive) in each case. Further, the GI50 with SK-MEL-28, with M19-MEL, in the test on HT-29, in the test with HOP-92, in the test with SF-539 and in the test with NCI-H460 was > 100 µM (inactive) in each case. The GI50 with HOP-62, in the test on SK-MEL-2, in the test with TK-10, in the test with SNB-19 and with Malme-3M was > 100 µM (inactive) each time.

Take `COc1cc2c(c(OC)c1OC)-c1cccc(=O)cc1C(NC(C)=O)CC2` (stereo not drawn): the GI50 is 0.0391 µM (active) with SNB-75; 0.0474 µM (active) in the test on UACC-62; 0.612 µM in the test with HCT-15; 0.0335 µM (active) in the test with K562; 0.845 µM (active) in the test on NCI-H226; 0.0267 µM (active) in the test on RPMI-8226. In addition, the GI50 in the test on SK-MEL-5 is 0.0397 µM (active); in the test on SK-MEL-28, 2.15 µM (inactive); with MCF7 it was < 0.01 µM (active); in the test on M19-MEL, 0.605 µM (active); in the test with HT-29 it was 0.0721 µM (active); with HOP-92, 0.0863 µM (active). For the same molecule, the GI50 with SF-539 was 0.042 µM (active); in the test on NCI-H460, 0.123 µM (active); with DU-145, 0.0624 µM (active); in the test with HOP-62, 0.172 µM (active); in the test with SK-MEL-2, 0.0698 µM (active); with TK-10 it was > 28.2 µM (inactive). Further, the GI50 in the test with SNB-19 was 0.748 µM (active); with Malme-3M, 0.0867 µM (active).

Take `Cc1cc(O)c2c(c1)C[C@@H](O)C1=C2C(=O)c2c(O)ccc(OC3CC(O)C(OC4CC(OC5CCC(OC6CC(O)C(OC7CC(OC8CCC(O)C(C)O8)C(O)C(C)O7)C(C)O6)C(C)O5)C(O)C(C)O4)C(C)O3)c2C1=O` (stereo partly drawn): the GI50 is 0.0573 µM (active) with SNB-75; 0.0702 µM (active) in the test with UACC-62; 0.0684 µM in the test with HCT-15; 0.0653 µM (active) in the test on K562; 0.268 µM (active) with NCI-H226; 0.0265 µM (active) in the test with RPMI-8226. The GI50 is 0.0879 µM (active) with SK-MEL-5; 0.07 µM (active) in the test with SK-MEL-28; 0.324 µM (active) in the test on MCF7; 0.00411 µM (active) with M19-MEL; 0.092 µM (active) in the test on HT-29; 0.178 µM (active) in the test on HOP-92. For the same molecule, the GI50 was 0.0716 µM (active) with SF-539; 0.238 µM (active) in the test on NCI-H460; 0.345 µM (active) in the test on DU-145; 0.232 µM (active) in the test with HOP-62; 0.0577 µM (active) in the test with SK-MEL-2; 0.184 µM (active) in the test with TK-10. Also, the GI50 with SNB-19 was 0.177 µM (active); with Malme-3M it was 0.0516 µM (active).
